# Measurements: the supplement of paper PMC10307832
# What was measured:
# Test in all cases: relative viability (nuclei count vs DMSO), 5 days (fraction); higher = more cells survive
# AT9283 + Bortezomib = compound: O=C(Nc1c[nH]nc1-c1nc2ccc(CN3CCOCC3)cc2[nH]1)NC1CC1 [AT9283] + CC(C)C[C@H](NC(=O)[C@H](Cc1ccccc1)NC(=O)c1cnccn1)B(O)O [Bortezomib] (partner 0.002 µM)
# Outline: (§1)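 Cells from lung cancer lines were seeded into 1536-well plates and, one day later, dosed by pin tool. Treatments were either a single drug or a fixed dose of an anchor drug with five library-drug doses (not always all listed) in √10 steps. After 5 days, nuclei were stained in a one-step fixation (final 0.05% Triton X-100, 1% formaldehyde, 1 ug/ml Hoechst) and counted on 4× images, and relative viability is the treated-to-vehicle nuclei ratio, as the median of duplicate plates.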
# Erlotinib + Foretinib = compound: C#Cc1cccc(Nc2ncnc3cc(OCCOC)c(OCCOC)cc23)c1 [Erlotinib] + COc1cc2c(Oc3ccc(NC(=O)C4(C(=O)Nc5ccc(F)cc5)CC4)cc3F)ccnc2cc1OCCCN1CCOCC1 [Foretinib] (partner 0.25 µM)
# Outline: as §1
# Erlotinib + Alpelisib = compound: C#Cc1cccc(Nc2ncnc3cc(OCCOC)c(OCCOC)cc23)c1 [Erlotinib] + Cc1nc(NC(=O)N2CCC[C@H]2C(N)=O)sc1-c1ccnc(C(C)(C)C(F)(F)F)c1 [Alpelisib] (partner 2 µM)
# Outline: as §1
# Erlotinib + Luminespib = compound: C#Cc1cccc(Nc2ncnc3cc(OCCOC)c(OCCOC)cc23)c1 [Erlotinib] + CCNC(=O)c1noc(-c2cc(C(C)C)c(O)cc2O)c1-c1ccc(CN2CCOCC2)cc1 [Luminespib] (partner 0.01 µM)
# Outline: as §1
# AT9283 + Linsitinib = compound: O=C(Nc1c[nH]nc1-c1nc2ccc(CN3CCOCC3)cc2[nH]1)NC1CC1 [AT9283] + C[C@]1(O)C[C@@H](c2nc(-c3ccc4ccc(-c5ccccc5)nc4c3)c3c(N)nccn32)C1 [Linsitinib] (partner 1 µM)
# Outline: as §1
Cell Line,relative viability (AT9283 + Bortezomib; first compound 0.003 µM),relative viability (AT9283 + Bortezomib; first compound 0.03 µM),relative viability (AT9283 + Bortezomib; first compound 0.09487 µM),relative viability (AT9283 + Bortezomib; first compound 0.3 µM),relative viability (Erlotinib + Foretinib; first compound 0.02 µM),relative viability (Erlotinib + Foretinib; first compound 0.2 µM),relative viability (Erlotinib + Foretinib; first compound 0.6325 µM),relative viability (Erlotinib + Foretinib; first compound 2 µM),relative viability (Erlotinib + Alpelisib; first compound 0.02 µM),relative viability (Erlotinib + Alpelisib; first compound 0.2 µM),relative viability (Erlotinib + Alpelisib; first compound 0.6325 µM),relative viability (Erlotinib + Alpelisib; first compound 2 µM),relative viability (Erlotinib + Luminespib; first compound 0.02 µM),relative viability (Erlotinib + Luminespib; first compound 0.2 µM),relative viability (Erlotinib + Luminespib; first compound 0.6325 µM),relative viability (Erlotinib + Luminespib; first compound 2 µM),relative viability (AT9283 + Linsitinib; first compound 0.003 µM),relative viability (AT9283 + Linsitinib; first compound 0.03 µM),relative viability (AT9283 + Linsitinib; first compound 0.09487 µM),relative viability (AT9283 + Linsitinib; first compound 0.3 µM)
HCC-15,1.05,0.773,0.696,0.166,0.996,1.01,1.15,0.934,0.897,0.844,0.913,0.77,0.241,0.376,0.236,0.208,0.831,0.424,0.155,0.146
HCC-78,0.425,0.472,0.237,0.245,0.477,0.42,0.362,0.322,0.353,0.337,0.305,0.186,,,,,0.475,0.41,0.172,0.185
NCI-H2170,,,,,1.04,1.05,0.935,0.656,0.895,0.745,0.578,0.308,0.685,0.413,0.743,0.398,,,,
NCI-H23,0.852,1.01,0.557,0.236,0.909,,1.24,0.631,0.763,0.593,0.816,0.634,0.218,,0.202,0.217,0.801,0.338,0.232,0.145
NCI-H838,0.777,0.228,0.184,0.231,1.14,0.992,1.09,,1,0.962,1.09,0.855,0.321,0.313,0.427,0.303,1.01,0.247,0.217,0.197
NCI-H522,,,,,,,,,,,,,1.16,0.954,1.15,0.965,,,,
NCI-H1650,0.206,0.222,0.231,0.215,0.747,0.594,0.697,0.699,,,,,0.218,0.188,0.206,0.21,,,,
EMC-BAC-2,1.04,0.792,0.216,0.204,1.05,0.778,0.877,0.898,0.762,0.649,0.685,0.542,1.12,1.06,1.19,1.03,0.85,0.634,0.205,0.226
NCI-H1563,0.859,0.79,0.822,0.703,0.979,0.836,0.955,0.951,0.931,,0.952,0.799,0.527,0.495,0.512,0.477,1.26,0.892,0.832,0.757
HCC-366,1.02,0.921,0.129,0.0684,0.867,0.936,0.976,0.941,0.46,0.25,0.402,0.209,,,,,0.71,0.319,0.0197,0.0206
SW 1573,1.04,0.304,0.279,0.236,0.886,0.911,0.895,0.9,0.805,0.706,0.87,,0.327,0.217,0.214,0.183,0.917,0.413,0.223,0.184
LOU-NH91,0.436,0.447,0.438,0.389,0.519,0.524,0.585,,0.539,0.495,0.527,0.512,0.412,0.297,0.364,0.31,0.903,0.968,0.604,0.464
NCI-H1299,1.07,1.02,0.437,0.395,1.11,1.08,1.16,1.07,1.07,1.03,1.1,1.03,,,,,0.888,0.705,0.402,0.256
HCC-44,0.814,0.833,0.548,0.399,,,,,0.821,0.698,0.909,0.707,0.912,1.02,1.62,1.03,0.628,0.745,0.148,0.14
NCI-H1437,0.496,0.398,0.175,0.164,1.31,1.23,1.24,1.2,0.924,0.965,,0.854,1.15,1.18,1.1,1.03,1.06,0.691,0.181,0.158
H3255,0.632,0.719,0.542,0.172,0.808,0.624,0.472,0.171,0.674,0.34,0.16,0.13,0.768,0.531,0.326,0.295,0.877,0.91,0.298,0.132
Calu-6,0.956,0.297,0.272,0.254,0.94,0.838,0.886,0.803,0.983,1.06,1.04,0.909,,,,,0.859,0.286,0.222,0.197
NCI-H2085,1.03,0.937,0.984,0.485,1.14,0.739,0.649,0.559,0.935,0.81,0.673,0.645,0.412,0.352,0.308,0.339,0.847,0.687,0.245,0.214
